Here are results for four cell lines from the supplement of paper PMC10307832.

Holding throughout (assay): relative viability (nuclei count vs DMSO), 5 days (fraction); higher = more cells survive
Compound in assay [1]: C=CCNC1=C2C[C@@H](C)C[C@H](OC)[C@H](O)[C@@H](C)/C=C(\C)[C@H](OC(N)=O)[C@@H](OC)/C=C\C=C(/C)C(=O)NC(=CC1=O)C2=O [17-AAG] + COc1cccc2cc(-c3nc([C@H]4CC[C@H](C(=O)O)CC4)n4ncnc(N)c34)[nH]c12 [OSI-027] (partner 0.5 µM)
A digest of the protocol: (§1)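 Dosing by pin tool came one day after lung cancer cell lines were seeded in 1536-well plates, using either one drug or a fixed anchor-drug dose plus five library-drug doses (not always all listed) in √10 steps. After 5 days, nuclei were counted on 4× images. Relative viability is treated-well nuclei count divided by vehicle-well nuclei count, and values are medians of duplicate plates.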

Compound in assay [2]: C=CCNC1=C2C[C@@H](C)C[C@H](OC)[C@H](O)[C@@H](C)/C=C(\C)[C@H](OC(N)=O)[C@@H](OC)/C=C\C=C(/C)C(=O)NC(=CC1=O)C2=O [17-AAG] + C[C@@H](Oc1cc(-c2cnn(C3CCNCC3)c2)cnc1N)c1c(Cl)ccc(F)c1Cl [Crizotinib] (partner 1 µM)
A digest of the protocol:
as §1

Compound in assay [3]: C=CCNC1=C2C[C@@H](C)C[C@H](OC)[C@H](O)[C@@H](C)/C=C(\C)[C@H](OC(N)=O)[C@@H](OC)/C=C\C=C(/C)C(=O)NC(=CC1=O)C2=O [17-AAG] + C[C@]1(O)C[C@@H](c2nc(-c3ccc4ccc(-c5ccccc5)nc4c3)c3c(N)nccn32)C1 [Linsitinib] (partner 1 µM)
A digest of the protocol:
as §1

Compound in assay [4]: C=CCNC1=C2C[C@@H](C)C[C@H](OC)[C@H](O)[C@@H](C)/C=C(\C)[C@H](OC(N)=O)[C@@H](OC)/C=C\C=C(/C)C(=O)NC(=CC1=O)C2=O [17-AAG] + Cc1cc(Nc2cc(N3CCN(C)CC3)nc(Sc3ccc(NC(=O)C4CC4)cc3)n2)n[nH]1 [Tozasertib] (partner 0.1 µM)
The procedure, abridged:
as §1

In the case of NCI-H1734, the relative viability in assay [1] (first compound 0.00128 µM) worked out at 0.602; in assay [1] (first compound 0.004048 µM) it was 0.709; in assay [1] (first compound 0.0128 µM), 0.415; in assay [1] (first compound 0.04048 µM), 0.263; in assay [1] (first compound 0.128 µM) it was 0.144; in assay [2] (first compound 0.00128 µM) it was 0.647. In addition, the relative viability was found to be 0.681 in assay [2] (first compound 0.004048 µM); 0.646 in assay [2] (first compound 0.0128 µM); 0.195 in assay [2] (first compound 0.04048 µM); 0.142 in assay [2] (first compound 0.128 µM); 0.87 in assay [3] (first compound 0.00128 µM); 0.838 in assay [3] (first compound 0.004048 µM). For the same cell line, the relative viability in assay [3] (first compound 0.0128 µM) came to 0.878; in assay [3] (first compound 0.04048 µM) it was 0.308; in assay [3] (first compound 0.128 µM) it was 0.18; in assay [4] (first compound 0.00128 µM), 0.272; in assay [4] (first compound 0.004048 µM), 0.293; in assay [4] (first compound 0.0128 µM), 0.224. Also, the relative viability came out at 0.161 in assay [4] (first compound 0.04048 µM) and 0.125 in assay [4] (first compound 0.128 µM).

For EPLC-272H, the relative viability in assay [1] (first compound 0.00128 µM) came to 0.275; in assay [1] (first compound 0.004048 µM), 0.277; in assay [1] (first compound 0.0128 µM), 0.247; in assay [1] (first compound 0.04048 µM), 0.145; in assay [1] (first compound 0.128 µM) it was 0.112; in assay [2] (first compound 0.00128 µM) it was 0.956. The relative viability stood at 0.872 in assay [2] (first compound 0.004048 µM); 1.01 in assay [2] (first compound 0.0128 µM); 0.672 in assay [2] (first compound 0.04048 µM); 0.338 in assay [2] (first compound 0.128 µM); 1.37 in assay [3] (first compound 0.00128 µM); 1.12 in assay [3] (first compound 0.004048 µM). For the same cell line, the relative viability in assay [3] (first compound 0.0128 µM) stood at 1.21; in assay [3] (first compound 0.04048 µM), 0.928; in assay [3] (first compound 0.128 µM) it was 0.324; in assay [4] (first compound 0.00128 µM), 0.331; in assay [4] (first compound 0.004048 µM), 0.329; in assay [4] (first compound 0.0128 µM), 0.482. Further, the relative viability in assay [4] (first compound 0.04048 µM) is 0.379; in assay [4] (first compound 0.128 µM), 0.143.

Turning to NCI-H2023, the relative viability in assay [1] (first compound 0.00128 µM) came out at 0.328; in assay [1] (first compound 0.004048 µM), 0.221; in assay [1] (first compound 0.0128 µM), 0.0577; in assay [1] (first compound 0.04048 µM), 0.0589; in assay [1] (first compound 0.128 µM) it was 0.0633; in assay [2] (first compound 0.00128 µM), 0.627. For the same cell line, the relative viability was 0.575 in assay [2] (first compound 0.004048 µM); 0.128 in assay [2] (first compound 0.0128 µM); 0.0736 in assay [2] (first compound 0.04048 µM); 0.063 in assay [2] (first compound 0.128 µM); 0.595 in assay [3] (first compound 0.00128 µM); 0.501 in assay [3] (first compound 0.004048 µM). The relative viability in assay [3] (first compound 0.0128 µM) worked out at 0.103; in assay [3] (first compound 0.04048 µM), 0.117; in assay [3] (first compound 0.128 µM), 0.0914; in assay [4] (first compound 0.00128 µM), 0.51; in assay [4] (first compound 0.004048 µM), 0.351; in assay [4] (first compound 0.0128 µM), 0.102. The relative viability in assay [4] (first compound 0.04048 µM) was found to be 0.0765; in assay [4] (first compound 0.128 µM), 0.0654.

Turning to BEN, the relative viability in assay [1] (first compound 0.00128 µM) came out at 0.337; in assay [1] (first compound 0.004048 µM), 0.307; in assay [1] (first compound 0.0128 µM) it was 0.256; in assay [1] (first compound 0.04048 µM), 0.232; in assay [1] (first compound 0.128 µM), 0.2; in assay [2] (first compound 0.00128 µM), 0.896. Besides, the relative viability in assay [2] (first compound 0.004048 µM) came to 0.821; in assay [2] (first compound 0.0128 µM) it was 0.929; in assay [2] (first compound 0.04048 µM), 0.739; in assay [2] (first compound 0.128 µM), 0.237; in assay [3] (first compound 0.00128 µM) it was 0.971; in assay [3] (first compound 0.004048 µM), 0.947. For the same cell line, the relative viability in assay [3] (first compound 0.0128 µM) came out at 0.911; in assay [3] (first compound 0.04048 µM), 0.89; in assay [3] (first compound 0.128 µM), 0.276; in assay [4] (first compound 0.00128 µM), 0.529; in assay [4] (first compound 0.004048 µM), 0.625; in assay [4] (first compound 0.0128 µM), 0.473. Also, the values for the relative viability in assay [4] (first compound 0.04048 µM) and in assay [4] (first compound 0.128 µM) were 0.738 and 0.472, respectively.
